In US20240156764A1, “INHIBITION OF URACIL DNA GLYCOSYLASE IN THE OPEN CONFORMATION” (CASE WESTERN RESERVE UNIVERSITY, priority 2022, published 2024):

Target: human UDG (Homo sapiens, UniProt P13051)
Test: Microscale thermophoresis (MST) binding
Design: Bacterially expressed and purified full-length human UDG; made in house
Experimental: The data for thermophoresis was recorded at 20° C. using the blue LED at 20% and IR-Laser at 40%. The isotherm derived from the raw data and fitted according to the law of mass action. […] Then 2 μL of 10× Sypro dye and 2 μL of ddH20 (Applied biosystems cat #4461141) were added. Monitoring of fluorescence took place for 2 hr (Bioraid CFX96, Hex filter, 25-97° C., 1.6° C./2 min). Negative (−) derivative RFU raw data and plots from the machine were obtained and analyzed. […] Melting temperature (Tm) value was taken directly from the midpoint on the −dRFU/dt vs. temperature graph. Each point on the graph represents an average of three data sets. Y error bars represent the standard deviation.
Bacterially expressed and purified full-length human UDG was fluorescently labeled with Atto488 NHS ester according to the manufacturer's protocol. […] The samples were loaded into silica premium capillaries (Polymicro Technologies) after incubation at room temperature for 15 min measurements were performed at 20° C., by using 20% LED power and 40% IR-laser power. Measurements were also carried out on 40 and 60% IR-Laser power for comparison. The raw data were exported to GraphPad Prism8 software, KD value was obtained by data fitting with a one-site specific binding model.

Sequence of human UDG (P13051 whole entry): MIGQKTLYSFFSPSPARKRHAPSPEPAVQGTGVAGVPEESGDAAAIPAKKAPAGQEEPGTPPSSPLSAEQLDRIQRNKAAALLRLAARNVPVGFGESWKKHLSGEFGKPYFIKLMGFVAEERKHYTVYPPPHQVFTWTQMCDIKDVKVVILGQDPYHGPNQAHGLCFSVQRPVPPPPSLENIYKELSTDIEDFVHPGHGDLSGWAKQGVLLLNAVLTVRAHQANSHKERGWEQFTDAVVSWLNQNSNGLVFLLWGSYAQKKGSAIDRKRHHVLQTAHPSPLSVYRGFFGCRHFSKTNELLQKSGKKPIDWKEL

In the case of N.N.N.O=C(O)C1=CC(=C(c2ccc(O)c(C(=O)O)c2)c2ccc(O)c(C(=O)O)c2)C=CC1=O [ATA NH4 salt], the Kd (MST, 100 nM labelled UDG, estimated, read-out: binding dissociation constant (KD)) is reported as under 700 nM and the “direct binding to the purified human UDG protein” value (more soluble ATA NH4 salt form) is reported as “significant improvement in direct binding”.
